Test results from US12281108B2, “Pyrrolidinone derivatives as formyl peptide 2 receptor agonists” (BRISTOL-MYERS SQUIBB COMPANY, priority 2018, dated 2025).

target: T1, human FPR2 receptors (Homo sapiens, UniProt P25090); assay: FPR2 cAMP assay in CHO cells overexpressing human FPR2 (HTRF); type: cell-based; conditions: hFPR2 assay; potency bins; read-out: hFPR2 agonist activity EC50
T1 sequence (P25090 1-351): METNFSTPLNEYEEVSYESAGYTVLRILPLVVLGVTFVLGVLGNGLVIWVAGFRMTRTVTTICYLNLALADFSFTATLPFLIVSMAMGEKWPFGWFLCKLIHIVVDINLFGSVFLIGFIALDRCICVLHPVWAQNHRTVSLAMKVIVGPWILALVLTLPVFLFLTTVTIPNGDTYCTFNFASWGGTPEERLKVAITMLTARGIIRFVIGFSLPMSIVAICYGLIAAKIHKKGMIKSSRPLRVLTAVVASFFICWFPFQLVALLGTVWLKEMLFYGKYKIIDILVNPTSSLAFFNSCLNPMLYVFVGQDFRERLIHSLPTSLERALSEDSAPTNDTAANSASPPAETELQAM
From the text: N-formyl peptide receptors (FPRs) are a family of chemo attractant receptors that facilitate leukocyte response during inflammation. FPRs belong to the seven-transmembrane G protein-coupled receptor superfamily and are linked to inhibitory G-proteins (Gi). Three family members (FPR1, FPR2 and FPR3) have been identified in humans and are predominantly found in myeloid cells with varied distribution and have also been reported in multiple organs and tissues. After agonist binding, the FPRs activate a multitude of physiological pathways, such as intra cellular signaling transduction, Ca^2+ mobilization and transcription. The family interacts with a diverse set of ligands that includes proteins, polypeptides and fatty acid metabolites which activate both pro-inflammatory and pro-resolution downstream responses. FPR2 and FPR1 Cyclic Adenosine Monophosphate (cAMP) Assays were used to measure the in vitro activity of the compounds disclosed in this application.
FPR2 and FPR1 Cyclic Adenosine Monophosphate (cAMP) Assays. A mixture of forskolin (5 μM final for FPR2 or 10 μM final for FPR1) and IBMX (200 μM final) were added to 384-well Proxiplates (Perkin-Elmer) pre-dotted with test compounds in DMSO (1% final) at final concentrations in the range of 0.020 nM to 100 μM. Chinese Hamster Ovary cells (CHO) overexpressing human FPR1 or human FPR2 receptors were cultured in F-12 (Ham's) medium supplemented with 10% qualified FBS, 250 μg/ml zeocin and 300 μg/ml hygromycin (Life Technologies). Reactions were initiated by adding 2,000 human FPR2 cells per well or 4,000 human FPR1 cells per well in Dulbecco's PBS (with calcium and magnesium) (Life Technologies) supplemented with 0.1% BSA (Perkin-Elmer). The reaction mixtures were incubated for 30 min at room temperature. The level of intracellular cAMP was determined using the HTRF HiRange cAMP assay reagent kit (Cisbio) according to manufacturer's instruction. Solutions of cryptate conjugated anti-cAMP and d2 flurorophore-labelled cAMP were made in a supplied lysis buffer separately. Upon completion of the reaction, the cells were lysed with equal volume of the d2-cAMP solution and anti-cAMP solution. After a 1-h room temperature incubation, time-resolved fluorescence intensity was measured using the Envision (Perkin-Elmer) at 400 nm excitation and dual emission at 590 nm and 665 nm. A calibration curve was constructed with an external cAMP standard at concentrations ranging from 1 μM to 0.1 pM by plotting the fluorescent intensity ratio from 665 nm emission to the intensity from the 590 nm emission against cAMP concentrations. The potency and activity of a compound to inhibit cAMP production was then determined by fitting to a 4-parametric logistic equation from a plot of cAMP level versus compound concentrations.

| EC50 [µM] | SMILES |
| --- | --- |
| 0.04 to 0.15 | COc1cc(F)c([C@@H]2CNC(=O)[C@H]2Nc2nnc(-c3ccc(Cl)nc3)s2)c(F)c1 [Example 31, (3S,4R)-3-{[5-(6-chloropyridin-3-yl)-1,3,4-thiadiazol-2-yl]amino}-4-(2,6-difluoro-4-methoxyphenyl)pyrrolidin-2-one] |
| 0.04 to 0.15 | COc1cc(F)c([C@@H]2CNC(=O)[C@H]2Nc2nnc(-c3ccc(F)cc3)s2)c(F)c1 [Example 32, (3S,4R)-4-(2,6-difluoro-4-methoxyphenyl)-3-{[5-(4-fluorophenyl)-1,3,4-thiadiazol-2-yl]amino}pyrrolidin-2-one] |
| 0.15 to 1 | COc1cc(F)c([C@@H]2CNC(=O)[C@H]2Nc2nnc(-c3ccc(C(F)(F)F)nc3)s2)c(F)c1 [Example 33, (3S,4R)-4-(2,6-difluoro-4-methoxyphenyl)-3-({5-[6-(trifluoromethyl)pyridin-3-yl]-1,3,4-thiadiazol-2-yl}amino)pyrrolidin-2-one] |
| ≤ 0.04 | COc1cc(F)c([C@@H]2CNC(=O)[C@H]2Nc2nnc(-c3ccc(Oc4ccccc4)cc3)o2)c(F)c1 [Example 35, (3S,4R)-4-(2,6-difluoro-4-methoxyphenyl)-3-{[5-(4-phenoxyphenyl)-1,3,4-oxadiazol-2-yl]amino}pyrrolidin-2-one] |
| 0.15 to 1 | COc1cc(F)c([C@@H]2CNC(=O)[C@H]2Nc2nnc(-c3ccc(OC(F)F)cc3)o2)c(F)c1 [Example 37, (3S,4R)-4-(2,6-difluoro-4-methoxyphenyl)-3-({5-[4-(difluoromethoxy)phenyl]-1,3,4-oxadiazol-2-yl}amino)pyrrolidin-2-one] |
| 0.15 to 1 | COc1cc(F)c([C@@H]2CNC(=O)[C@H]2Nc2nnc(-c3ccc(C4CC4)cc3)o2)c(F)c1 [Example 38, (3S,4R)-3-{[5-(4-cyclopropylphenyl)-1,3,4-oxadiazol-2-yl]amino}-4-(2,6-difluoro-4-methoxyphenyl)pyrrolidin-2-one] |
| 0.15 to 1 | COc1cc(F)c([C@@H]2CNC(=O)[C@H]2Nc2nnc(-c3ccc(C(C)C)cc3)o2)c(F)c1 [Example 39, (3S,4R)-4-(2,6-difluoro-4-methoxyphenyl)-3-({5-[4-(propan-2-yl)phenyl]-1,3,4-oxadiazol-2-yl}amino)pyrrolidin-2-one] |
| ≤ 0.04 | COc1cc(F)c([C@@H]2CNC(=O)[C@H]2Nc2nnc(-c3ccc(Oc4ccc(Cl)cc4)cc3)o2)c(F)c1 [Example 40, (3S,4R)-3-({5-[4-(4-chlorophenoxy)phenyl]-1,3,4-oxadiazol-2-yl}amino)-4-(2,6-difluoro-4-methoxyphenyl)pyrrolidin-2-one] |
| ≤ 0.04 | COc1cc(F)c([C@@H]2CNC(=O)[C@H]2Nc2nnc(C3CC3c3ccc(Cl)cc3)o2)c(F)c1 (stereo partly drawn) [Example 41, (3S,4R)-3-({5-[2-(4-chlorophenyl)cyclopropyl]-1,3,4-oxadiazol-2-yl}amino)-4-(2,6-difluoro-4-methoxyphenyl)pyrrolidin-2-one] |
| 0.04 to 0.15 | COc1cc(F)c([C@@H]2CNC(=O)[C@H]2Nc2nnc(C3CC3c3cc(F)cc(F)c3)o2)c(F)c1 (stereo partly drawn) [Example 42, (3S,4R)-4-(2,6-difluoro-4-methoxyphenyl)-3-({5-[2-(3,5-difluorophenyl)cyclopropyl]-1,3,4-oxadiazol-2-yl}amino)pyrrolidin-2-one] |
| 0.04 to 0.15 | COc1cc(F)c([C@@H]2CNC(=O)[C@H]2Nc2nnc(C3CC3c3ccccc3OC)o2)c(F)c1 (stereo partly drawn) [Example 44, (3S,4R)-4-(2,6-difluoro-4-methoxyphenyl)-3-({5-[2-(2-methoxyphenyl)cyclopropyl]-1,3,4-oxadiazol-2-yl}amino)pyrrolidin-2-one] |
| ≤ 0.04 | COc1cc(F)c([C@@H]2CNC(=O)[C@H]2Nc2nnc(C3CC3c3cccc(Cl)c3)o2)c(F)c1 (stereo partly drawn) [Example 45, (3S,4R)-3-({5-[2-(3-chlorophenyl)cyclopropyl]-1,3,4-oxadiazol-2-yl}amino)-4-(2,6-difluoro-4-methoxyphenyl)pyrrolidin-2-one] |
| ≤ 0.04 | COc1cc(F)c([C@@H]2CNC(=O)[C@H]2Nc2nnc(C3CC3c3ccc(Cl)cc3F)o2)c(F)c1 (stereo partly drawn) [Example 46, (3S,4R)-3-({5-[2-(4-chloro-2-fluorophenyl)cyclopropyl]-1,3,4-oxadiazol-2-yl}amino)-4-(2,6-difluoro-4-methoxyphenyl)pyrrolidin-2-one] |
| 0.04 to 0.15 | COc1cc(F)c([C@@H]2CNC(=O)[C@H]2Nc2nnc(-c3ccc(Oc4cc(C#N)ccn4)cc3)o2)c(F)c1 [Example 48, 2-[4-(5-{[(3S,4R)-4-(2,6-difluoro-4-methoxyphenyl)-2-oxopyrrolidin-3-yl]amino}-1,3,4-oxadiazol-2-yl)phenoxy]pyridine-4-carbonitrile] |
| 0.04 to 0.15 | COc1cc(F)c([C@@H]2CNC(=O)[C@H]2Nc2nnc(-c3ccc(Oc4cnccn4)cc3)o2)c(F)c1 [Example 49, (3S,4R)-4-(2,6-difluoro-4-methoxyphenyl)-3-({5-[4-(pyrazin-2-yloxy)phenyl]-1,3,4-oxadiazol-2-yl}amino)pyrrolidin-2-one] |
| ≤ 0.04 | COc1cc(F)c([C@@H]2CNC(=O)[C@H]2Nc2noc3cc(Cl)ccc23)c(F)c1 [Example 50, (3S,4R)-3-[(6-chloro-1,2-benzoxazol-3-yl)amino]-4-(2,6-difluoro-4-methoxyphenyl)pyrrolidin-2-one] |
| 0.04 to 0.15 | COc1cc(F)c([C@@H]2CNC(=O)[C@H]2Nc2nnc(C(=O)NCc3ccc(Cl)cc3)o2)c(F)c1 [Example 53, N-[(4-chlorophenyl)methyl]-5-{[(3S,4R)-4-(2,6-difluoro-4-methoxyphenyl)-2-oxopyrrolidin-3-yl]amino}-1,3,4-oxadiazole-2-carboxamide] |
| 0.15 to 1 | COc1cc(F)c([C@@H]2CNC(=O)[C@H]2Nc2nnc(C(=O)NCCc3ccc(Cl)cc3)o2)c(F)c1 [Example 54, N-[2-(4-chlorophenyl)ethyl]-5-{[(3S,4R)-4-(2,6-difluoro-4-methoxyphenyl)-2-oxopyrrolidin-3-yl]amino}-1,3,4-oxadiazole-2-carboxamide] |
| ≤ 0.04 | COc1cc(F)c([C@@H]2CNC(=O)[C@H]2Nc2nnc(-c3ccc(Oc4ccc(Cl)cn4)cc3)o2)c(F)c1 [Example 55, (3S,4R)-3-[(5-{4-[(5-chloropyridin-2-yl)oxy]phenyl}-1,3,4-oxadiazol-2-yl)amino]-4-(2,6-difluoro-4-methoxyphenyl)pyrrolidin-2-one] |
| 0.04 to 0.15 | COc1cc(F)c([C@@H]2CNC(=O)[C@H]2Nc2nnc(-c3ccc(Oc4ccc(C#N)cc4)cc3)o2)c(F)c1 [Example 57, 4-[4-(5-{[(3S,4R)-4-(2,6-difluoro-4-methoxyphenyl)-2-oxopyrrolidin-3-yl]amino}-1,3,4-oxadiazol-2-yl)phenoxy]benzonitrile] |
| 0.04 to 0.15 | COc1cc(F)c([C@@H]2CNC(=O)[C@H]2Nc2nnc(-c3ccc(Oc4cnc(Cl)cn4)cc3)o2)c(F)c1 [Example 60, (3S,4R)-3-[(5-{4-[(5-chloropyrazin-2-yl)oxy]phenyl}-1,3,4-oxadiazol-2-yl)amino]-4-(2,6-difluoro-4-methoxyphenyl)pyrrolidin-2-one] |
| 0.04 to 0.15 | COc1cc(F)c([C@@H]2CNC(=O)[C@H]2Nc2nnc(-c3ccc(Oc4ncccc4F)cc3)o2)c(F)c1 [Example 61, (3S,4R)-4-(2,6-difluoro-4-methoxyphenyl)-3-[(5-{4-[(3-fluoropyridin-2-yl)oxy]phenyl}-1,3,4-oxadiazol-2-yl)amino]pyrrolidin-2-one] |
| 0.04 to 0.15 | COc1cc(F)c([C@@H]2CNC(=O)[C@H]2Nc2nnc(-c3ccc(Oc4cc(OC)ncn4)cc3)o2)c(F)c1 [Example 62, (3S,4R)-4-(2,6-difluoro-4-methoxyphenyl)-3-[(5-{4-[(6-methoxypyrimidin-4-yl)oxy]phenyl}-1,3,4-oxadiazol-2-yl)amino]pyrrolidin-2-one] |

| SMILES | EC50 [µM] |
| --- | --- |
| CCCCOc1ccc(-c2nnc(N[C@@H]3C(=O)NC[C@H]3c3c(F)cc(OC)cc3F)o2)cc1 [Example 34, (3S,4R)-3-{[5-(4-butoxyphenyl)-1,3,4-oxadiazol-2-yl]amino}-4-(2,6-difluoro-4-methoxyphenyl)pyrrolidin-2-one] | 0.04 to 0.15 |
